From patent US6825178B1, “Methods and products for treating pseudomonas infection” (The Brigham and Women's Hospital, Inc., priority 1996, dated 2004)
Marks after values point to notes of the source that are not given here.

How the values were obtained:
[1] = system: transformed human airway epithelial cells (CFT1-LCFSN line); assay: Inhibition of internalization of P. aeruginosa strain PAO1 into CFT1-LCFSN cells (bacterial ingestion assay); format: cell-based; settings: strain PAO1, CFT1-LCFSN cells
Description: (§1) Cell lines. CFT1-LCFSN cells, carrying a retrovirally introduced chromosomal copy of the wild-type human CFTR gene were kindly provided by J. Olsen, J. Yankaskis and L. Johnson from The University of North Carolina, Chapel Hill, N.C.. The cell line parental to CFT1-LCFSN is designated CFT1; it is a line of human papilloma virus 18 E6/E7 transformed bronchial epithelial cells derived from a CF patient homozygous for ΔF508 CFTR. The CFT1-LCFSN cells have normal chloride ion conductance. CFT1-ΔF508 cells are derived from CFT1 cells and carry a cDNA introduced by a retrovirus vector that encodes the ΔF508 mutant form of CFTR. Cells were grown in supplemented F-12 medium as described in 5% CO2 at 37° C.
(§2) Bacterial strains. P. aeruginosa strains used include PAO1, a well-characterized laboratory strain, and strains 149 and 324, non-mucoid, LPS-smooth clinical isolates of P. aeruginosa from CF patients early in the course of infection. Fresh cultures of P. aeruginosa grown overnight at 37° C. on a tryptic soy agar plate were suspended in supplemented medium to prepare the bacterial inoculum. Approximately 10^6 cfu of the bacterial inoculum were added per well of 10^5, epithelial cells.
Reagents for inhibition of ingestion assays. Membranes were prepared from C127 cells as described by O'Riordan et al.. Membranes were suspended in 150 mM NaCl, 50 mM Tris, pH 7.5 and 1 mM EDTA and added at the indicated concentration to suspensions of P. aeruginosa strains prior to adding this mixture to CFT1-LCFSN cells to measure bacterial uptake. Membranes from CEM/VbI cells expressing P-glycoprotein and membranes from control CEM cells lacking P-glycoprotein were obtained from James Croop of Harvard Medical School. Purified (˜85%) recombinant CFTR was obtained from Genzyme Corp., and prepared as described. The protein was solubilized in 100 mM NaCl, 10 mM Tris, pH 8.0, 2 mM di-thio-threitol and 0.1% sodium dodecyl sulfate. Monoclonal antibodies raised to synthetic peptides corresponding to the first (MAb CF3) and fourth (MAb CF4) predicted extracellular domains of CFTR, as well as a MAb specific to a peptide representing the carboxy-terminal 14 amino acids of mature CFTR (MAb CF2) were provided by Dr. George Banting, University of Bristol, Bristol, UK [12]. Synthetic peptides were obtained from Chiron Mimetopes, San Diego, Calif. Peptide […] (15 amino acids) (SEQ.ID.NO. 3) represents amino acids 103-117 of mature CFTR, peptide […] (31 amino acids) (SEQ.ID.NO. 4) represents amino acids 881-911 of mature CFTR. Peptides were made up as a stock solution in F-12 medium containing 1 μM/μl based on the purity reported by the manufacturer. Peptides were diluted in F-12 tissue culture medium prior to use in assays.
(§3) Bacterial ingestion assay. Cells were released from monolayers in tissue culture flasks by 5 min. of incubation with trypsin-versene mixture (BioWhitaker, Walkersville, Md.), washed, counted and seeded into 96-well tissue culture plates at 10^5 cells/well in supplemented F-12 medium and incubated at 37° C. in 5% CO2. Fresh cultures of P. aeruginosa grown overnight at 37° C. on a tryptic soy agar plate were suspended in supplemented F-12 medium to prepare the bacterial inoculum. Then 10^6 colony forming units (cfu) of the bacterial inoculum were added per well of 10^5 epithelial cells. Bacteria were allowed to invade the epithelial cells for 3 to 4 hours at 37° C., after which nonadherent bacteria were removed by washing. The remaining steps of the assay and the steps involved in the controls have previously been described. Three to 9 replicates were obtained per point, and analyzed using analysis of variance (ANOVA) and the Fisher PLSD statistic to determine pairwise differences. […]

[2] = system: transformed human airway epithelial cells (CFT1-LCFSN line); assay: Inhibition of internalization of P. aeruginosa strain 149 into CFT1-LCFSN cells (bacterial ingestion assay); format: cell-based; settings: strain 149, CFT1-LCFSN cells
Description: as §1, §2
Reagents for inhibition of ingestion assays. Membranes were prepared from C127 cells as described by O'Riordan et al.. Membranes were suspended in 150 mM NaCl, 50 mM Tris, pH 7.5 and 1 mM EDTA and added at the indicated concentration to suspensions of P. aeruginosa strains prior to adding this mixture to CFT1-LCFSN cells to measure bacterial uptake. Membranes from CEM/VbI cells expressing P-glycoprotein and membranes from control CEM cells lacking P-glycoprotein were obtained from James Croop of Harvard Medical School. Purified (˜85%) recombinant CFTR was obtained from Genzyme Corp., and prepared as described. The protein was solubilized in 100 mM NaCl, 10 mM Tris, pH 8.0, 2 mM di-thio-threitol and 0.1% sodium dodecyl sulfate. Monoclonal antibodies raised to synthetic peptides corresponding to the first (MAb CF3) and fourth (MAb CF4) predicted extracellular domains of CFTR, as well as a MAb specific to a peptide representing the carboxy-terminal 14 amino acids of mature CFTR (MAb CF2) were provided by Dr. George Banting, University of Bristol, Bristol, UK [12]. Synthetic peptides were obtained from Chiron Mimetopes, San Diego, Calif. Peptide GRIIASYDPDNKEER (15 amino acids) (SEQ.ID.NO. 3) represents amino acids 103-117 of mature CFTR, peptide […] (31 amino acids) (SEQ.ID.NO. 4) represents amino acids 881-911 of mature CFTR. Peptides were made up as a stock solution in F-12 medium containing 1 μM/μl based on the purity reported by the manufacturer. Peptides were diluted in F-12 tissue culture medium prior to use in assays.
as §3

Row | Sequence | Mean cfu of P. aeruginosa internalized (standard deviation) ([1]; 0.001 nanomoles peptide) | Mean cfu of P. aeruginosa internalized (standard deviation) ([1]; 0.01 nanomoles peptide) | Mean cfu of P. aeruginosa internalized (standard deviation) ([1]; 0.1 nanomoles peptide) | Mean cfu of P. aeruginosa internalized (standard deviation) ([1]; 1 nanomoles peptide) | Mean cfu of P. aeruginosa internalized (standard deviation) ([2]; 0.001 nanomoles peptide) | Mean cfu of P. aeruginosa internalized (standard deviation) ([2]; 0.01 nanomoles peptide) | Mean cfu of P. aeruginosa internalized (standard deviation) ([2]; 0.1 nanomoles peptide) | Mean cfu of P. aeruginosa internalized (standard deviation) ([2]; 1 nanomoles peptide)
1 | GRIIASYDPDNKEER (listed as Homo Sapiens) [First domain] | 5.533 × 10^4 (5.2986 × 10^3) cfu | 3.482 × 10^4 (3.8473 × 10^3)^a cfu | 2.513 × 10^4 (1.6609 × 10^3)^a cfu | 2.383 × 10^4 (4.6207 × 10^3)^a cfu | 5.73 × 10^4 (4.006 × 10^3) cfu | 1.705 × 10^4 (2.1333 × 10^3)^a cfu | 7.0167 × 10^3 (8.542 × 10^2)^a cfu | 3.7833 × 10^3 (4.491 × 10^2)^a cfu
2 | LWLLGNTPLQDKGNSTHSRNNSYAVIITSTS (listed as Homo Sapiens) [Fourth domain, reference compound] | 6.978 × 10^4 (5.4745 × 10^3) cfu | 7.23 × 10^4 (3.6721 × 10^3) cfu | 7.488 × 10^4 (5.0653 × 10^3) cfu | 8.708 × 10^4 (4.0519 × 10^3) cfu | 4.752 × 10^4 (5.9915 × 10^3) cfu | 4.86 × 10^4 (4.6463 × 10^3) cfu | 5.528 × 10^4 (6.0598 × 10^3) cfu | 5.735 × 10^4 (4.0009 × 10^3) cfu
